Assay [1] has as its system CD8+ T cells of healthy donors. The assay can be described thus: Priming of high-avidity CD8+ T cells with low density pMHC beads, tetramer staining and FACS sorting. The class given is cell-based, human. Conditions: for establishment of specific high-avidity T-cell lines by FACS: healthy donors; for in vitro immunogenicity with low pMHC density aAPCs: low density beads (2 ng relevant pMHC). The source says: Dependent on their ability to be activated by high- or low-density antigen, T cell lines can be divided into high- or low-avidity. As it has been shown before (Walter, S, et al., 2003, J. Immunol., 171, 4974-4978), human high-avidity CTLs can be raised successfully by using less peptide for activation compared to low-avidity CD8+ T cells.
To determine the ability of peptides to generate high-avidity CTL lines, isolated human CD8+ cells were primed and expanded by repeated in vitro stimulations with beads coated with low-density pMHC (peptide-MHC-complex) and anti-CD28 antibody in the presence of IL-12 and IL-2. After three stimulations, a fraction of in vitro primed T cells were pMHC-tetramer stained and detected by cytometric analysis. Tetramer-positive cells of each donor were pooled afterwards according to the antigen specificity, stained with pMHC-tetramer and human anti-CD8-FITC antibody and finally subjected to FACS sorting on a FACSAria. Sorted cells were cultured and expanded in the presence of irradiated feeder cells, cytokines and mitogen. As a read-out for the generation of primed high avidity antigen specific cells, pMHC-tetramer staining was performed. In order to determine their functionality, IFNγ production was assayed by ELISPOT and killing of tumor cell lines was examined using a cytotoxicity assay based on live/dead staining after restimulation of the cells with the corresponding peptide and tumor cell lines.
In vitro stimulations using artificial antigen presenting cells (aAPC) loaded with peptide-MHC complex (pMHC) and anti-CD28 antibody were conducted as described above. The only difference to the method described above was the fact that stimulations were performed with beads loaded with 2 ng relevant plus 200 ng irrelevant library (pMHC) MHC (low density beads) instead of 200 ng relevant MHC (high density beads). Thus, predominantly high avidity T cells were generated for deeper validation of peptides. After three stimulations, a fraction of in vitro primed T cells was pMHC-tetramer stained and detected by cytometric analysis. […] Tetramer-positive cells of each donor were pooled afterwards according to the antigen specificity, stained with the corresponding pMHC-tetramer and human anti-CD8-FITC antibody clone SK1 and finally subjected to FACS sorting on a FACSAria (BD Biosciences, Germany). […] As a read-out for the generation of primed high avidity antigen specific cells, pMHC-tetramer staining was performed as above and analyzed on a four-color FACSCalibur (BD Biosciences, Germany).
(In general: Flow cytometry measures light scatter and fluorescence of single cells or particles in a stream.)

Another assay has as its target HLA-A*0201 (Homo sapiens, UniProt P04439, D140Y/D185E/D98H/E176V/E277Q/G131W/G231S/I119V/I121R/I166T/I218V/L300P/L318F/N151K/N90K/P208A/P217A/Q86G/Q94H/R138H/R169H/T345S). The assay can be described thus: HLA-A*0201 binding assay, ELISA EpI Kit (Example 4). Conditions: for binding affinity to HLA-A*0201 (KD), in words: FIG. 4, lower KD = higher affinity. Here is the method:
FIG. 4 depicts binding affinities of selected peptides to HLA-A*0201 as measured by EpI ELISA according to Sylvester-Hvid, C, et al., 2002, Tissue Antigens, 59, 251-258). The analysis was limited to peptides known to be MHC class I binding peptides. Affinities of HLA-DR binding peptides cannot be measured with this assay.
The HLA binding assay was performed using the ELISA EpI Kit (obtained from Sceren Buus, Institute of Medical Microbiology and Immunology at the University of Copenhagen, Denmark) according to Sylvester-Hvid (Sylvester-Hvid, at al., 2002, Tissue Antigens, 59, 251-258) and the ELISA EpI Kit manual by the manufacturer.
Peptides were dissolved in DMSO+0.5% TFA (Merck, Darmstadt, Germany) at a concentration of 10 mg/ml. The highest peptide working solution used in this assay was 200 μM, therefore the stock solution was diluted 1:50 in a peptide-dilution buffer (PBS with 0.1% Lutrol-F68 and 10 mg/1 Phenol red) to a final volume of 100 μl. A serial five-fold dilution was performed with peptide-dilution buffer.
According to the manual, a 2-fold concentrated HLA-A*0201 solution was prepared by mixing 3×pH buffer (pH 6.6), Lutrol-F68, human β2m, recombinant HLA-A*0201 (all included in the ELISA EpI Kit) with PBS.
For the refolding process, 15 μl of peptide serial dilutions and 15 μl of the 2-fold concentrated MHC mix were mixed in 96-well plates (Nunc, Rochester, N.Y., USA) and incubated at 18° C. for 48 hours.
Maxisorp plates (Nunc, Rochester, N.Y.) were coated with 5 μg/ml w6/32 antibody in coating buffer (pH 9.6), incubated for 24 h at 4° C. and blocked with 5% skim milk powder (Merck, Darmstadt, Germany) in PBS over night at 4° C.
MHC complex standard (ELISA EpI Kit) was diluted with 2% skim milk powder in PBS (SMP/PBS) to a concentration of 10 nM. A serial 3.16-fold dilution was prepared and transferred to the coated and blocked Maxisorp plate. […] Plates were read at OD450 nm using the VERSAmax ELISA-Reader (Molecular Devices, Sunnyvale, Calif., USA). […]
A general note: An ELISA detects its analyte on a solid surface through an enzyme-linked reagent.

The record followed here is patent US9950048B2, “Immunogenic epitopes for immunotherapy” (immatics biotechnologies GmbH, priority 2007, dated 2018).

Ends that are not written are not given here.

ILAPVILYI [NOX-001]: in assay [1], the “establishment of specific high-avidity T-cell lines by FACS” value was “specific T-cell lines could be established by FACS” and the “in vitro immunogenicity with low pMHC density aAPCs” value is on record as “immunogenic in vitro”. In addition, on HLA-A*0201, the “binding affinity to HLA-A*0201 (KD), in words” value is listed as “slightly higher binding affinity”.

As to ALFVRLLALA [TGFBI-001], in assay [1], the “establishment of specific high-avidity T-cell lines by FACS” value is on record as “specific T-cell lines could be established by FACS” and the “in vitro immunogenicity with low pMHC density aAPCs” value is on record as “immunogenic in vitro”. The “fold lower KD value compared with the majority of peptides” value on HLA-A*0201 (FIG. 4) amounted to 100 fold. Also, on HLA-A*0201, the “binding affinity to HLA-A*0201 (KD), in words” value is listed as “strongest binder”.
